Data from US9751907B2, “Arbekacin derivative, and production and use thereof” (MEIJI SEIKA PHARMA CO., LTD., priority 2013, dated 2017).

How the values were obtained:
[1] = Moisture-absorbing properties on storage at 40° C. at defined humidity; assay type: physicochemical; conditions: stored at 40° C.
[2] = Storage stability of the solid at 40° C. and 75% humidity, related substances analysed by HPLC; assay type: physicochemical; conditions: for Amount of related substances increased: related substance content: 40° C., 75% RH
Procedure: The HPLC analysis conditions were as described in (3) Dibekacin and (4) Related substance in the purity test for arbekacin sulfate in the Japanese Pharmacopoeia Sixteen Edition.
Specifically, arbekacin free base was stored at 40° C. and a humidity of 75% for 1 month and 2 months, and the amount of related substances changed was analyzed by HPLC.

NCC[C@H](O)C(=O)N[C@@H]1C[C@H](N)[C@@H](O[C@H]2O[C@H](CN)CC[C@H]2N)[C@H](O)[C@H]1O[C@H]1O[C@H](CO)[C@@H](O)[C@H](N)[C@H]1O [arbekacin free base, Arbekacin]
moisture-absorbing properties ([1]; Humidity 12%): 1.60
moisture-absorbing properties ([1]; Humidity 22%): 4.62
moisture-absorbing properties ([1]; Humidity 30%): 6.25
moisture-absorbing properties ([1]; Humidity 43%): 7.54
moisture-absorbing properties ([1]; Humidity 53%): 9.14
Amount of related substances increased: related substance content ([2]; 1-month storage): 1.7%
Amount of related substances increased: related substance content ([2]; 2-month storage): 4.3%
amount of the related substances changed (i.e., the amount increased) ([2]; stored at 40° C. and a humidity of 75% for 1 month and 2 months): ≥ 4%
